Measurements as given in the supplement of paper PMC7840683.
Structures can show the parent of a compound that is named as a salt. ± gives the standard deviation of the averaged measurements.

System: HepaRG
Test: LDH release cytotoxicity, % of total lysis control; higher = more cytotoxic
Conditions: 48 h
How it was run: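 On collagen I-coated 96-well plates, single-lot HepaRG cells were exposed for 48 h, in duplicate, to eight-point half-log series of test chemicals beginning at 100 µM. The exposure medium was serum-free induction medium with 0.5% DMSO, and total lysis wells got 0.1% Triton X. Resorufin fluorescence from the CytoTox-ONE reaction, read on a Tecan Safire, reported LDH in 50 µL of spent medium. Percent cytotoxicity came from normalization to on-plate vehicle and total lysis controls, averaged over the duplicates.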

| Structure (SMILES) | LDH release cytotoxicity (0.03162 µM) [%] | LDH release cytotoxicity (0.1 µM) [%] | LDH release cytotoxicity (0.3162278 µM) [%] | LDH release cytotoxicity (1 µM) [%] | LDH release cytotoxicity (3.16228 µM) [%] | LDH release cytotoxicity (10 µM) [%] | LDH release cytotoxicity (31.6228 µM) [%] | LDH release cytotoxicity (100 µM) [%] | other results |
| --- | --- | --- | --- | --- | --- | --- | --- | --- | --- |
| C=CCc1ccc(O)c(OC)c1 [Eugenol] | -2.2 ± 1.2 | -1.91 ± 0.14 | -1.79 ± 0.029 | -2.07 ± 0.26 | -2.07 ± 0.21 | -1.74 ± 0.19 | -0.896 ± 0.51 | -0.336 ± 0.32 | – |
| CCN(Cc1cccc(S(=O)(=O)O)c1)c1ccc(C(=C2C=CC(=[N+](CC)Cc3cccc(S(=O)(=O)O)c3)C=C2)c2ccccc2S(=O)(=O)O)cc1 [FD&C Blue No. 1] | – | – | – | – | – | – | – | – | LDH release cytotoxicity (0.0204 µM): -1.63 ± 0.15%; LDH release cytotoxicity (0.0645 µM): -0.475 ± 0.088%; LDH release cytotoxicity (0.203967 µM): -1.54 ± 0.48%; LDH release cytotoxicity (0.645 µM): -1.35 ± 0.38%; LDH release cytotoxicity (2.03967 µM): -1.04 ± 0.34%; LDH release cytotoxicity (6.45 µM): -0.732 ± 0.83%; LDH release cytotoxicity (20.3967 µM): -1.07 ± 0.46%; LDH release cytotoxicity (64.5 µM): -1.76 ± 0.13% |
| O=S(=O)(O)c1ccc(N=Nc2c(O)ccc3cc(S(=O)(=O)O)ccc23)cc1 [FD&C Yellow 6] | -2.21 ± 0.52 | -2.28 ± 0.12 | -3.01 ± 0.6 | -3.07 ± 0.99 | -4.37 ± 0.34 | -4.81 ± 0.16 | -4.8 ± 0.5 | -4.65 ± 0.44 | – |
| Cc1nc[nH]c1CC1CCc2c(C)c3ccccc3n2C1=O (centres undefined) [Fabesetron hydrochloride] | – | – | – | – | – | – | – | – | LDH release cytotoxicity (0.0281443 µM): -1.11 ± 1.1%; LDH release cytotoxicity (0.089 µM): -1.43 ± 0.83%; LDH release cytotoxicity (0.281443 µM): -1.19 ± 0.51%; LDH release cytotoxicity (0.89 µM): -1.4 ± 0.97%; LDH release cytotoxicity (2.81443 µM): -1.38 ± 1.2%; LDH release cytotoxicity (8.9 µM): -0.0311 ± 2%; LDH release cytotoxicity (28.144271 µM): 43.7 ± 4.9%; LDH release cytotoxicity (89 µM): 76.2 ± 2.1% |
| CC1(c2ccc(Oc3ccccc3)cc2)OC(=O)N(Nc2ccccc2)C1=O (centres undefined) [Famoxadone] | – | – | – | – | – | – | – | – | LDH release cytotoxicity (0.0317809 µM): -0.255 ± 0.56%; LDH release cytotoxicity (0.1005 µM): -1.03 ± 0.34%; LDH release cytotoxicity (0.317809 µM): -0.879 ± 1.4%; LDH release cytotoxicity (1.005 µM): -1.52 ± 0.023%; LDH release cytotoxicity (3.17809 µM): -2.56 ± 0.49%; LDH release cytotoxicity (10.05 µM): 10.7 ± 2.7%; LDH release cytotoxicity (31.7809 µM): 18.1 ± 3.1%; LDH release cytotoxicity (100.5 µM): 64.5 ± 2.4% |
| CCc1cc(C2=C(C(=O)O)N(c3ccccc3C(F)(F)F)S(=O)(=O)c3ccccc32)cc2c1OCO2 [Fandosentan potassium salt] | -0.538 ± 1.3 | -0.00891 ± 0.054 | -0.491 ± 0.64 | -0.769 ± 1.1 | -0.525 ± 0.42 | -0.587 ± 0.47 | 2.28 ± 1.1 | 48.4 ± 0.95 | – |
| Cc1oc(-c2ccccc2)nc1CCOc1ccc(CC(Nc2ccccc2C(=O)c2ccccc2)C(=O)O)cc1 (centres undefined) [Farglitazar] | -1.27 ± 0.032 | -1.73 ± 1.1 | -0.126 ± 0.81 | -1.05 ± 1.1 | -2.03 ± 0.091 | -1.81 ± 0.25 | 67.1 ± 9.7 | 78.6 ± 1.2 | – |
| CSC1=NC(C)(c2ccccc2)C(=O)N1Nc1ccccc1 (centres undefined) [Fenamidone] | -1.05 ± 0.0084 | -1.31 ± 0.79 | -1.11 ± 0.55 | -1.54 ± 1.1 | -1.63 ± 0.022 | -2.26 ± 0.039 | 6.59 ± 0.97 | 15.2 ± 0.075 | – |
| CN(C)c1ccc(N=NS(=O)(=O)O)cc1 [Fenaminosulf] | -1.38 ± 0.17 | -1.18 ± 1.2 | -1.97 ± 0.02 | -2.42 ± 0.11 | -2.64 ± 0.11 | -3.4 ± 0.27 | -3.39 ± 0.36 | -3.64 ± 0.36 | – |
| CCOP(=O)(NC(C)C)Oc1ccc(SC)c(C)c1 (centres undefined) [Fenamiphos] | -1.16 ± 0.47 | -1.81 ± 0.1 | -1.38 ± 0.062 | -1.28 ± 0.5 | -1.13 ± 0.23 | -1.56 ± 0.18 | -1.03 ± 0.43 | 0.0773 ± 0.2 | – |
| OC(c1ccc(Cl)cc1)(c1cncnc1)c1ccccc1Cl (centres undefined) [Fenarimol] | – | -0.827 ± 2.8 | – | -2.32 ± 0.2 | -0.581 ± 1.4 | 0.969 ± 1.6 | 2.21 ± 1.1 | 15.4 ± 0.42 | LDH release cytotoxicity (0.031623 µM): -1.68 ± 0.087%; LDH release cytotoxicity (0.316228 µM): -0.805 ± 1.8% |
| N#CC(CCc1ccc(Cl)cc1)(Cn1cncn1)c1ccccc1 (centres undefined) [Fenbuconazole] | -0.994 ± 0.62 | -0.764 ± 0.82 | -0.539 ± 0.46 | -0.261 ± 2.2 | -0.9 ± 0.043 | -0.281 ± 0.28 | 5.08 ± 0.15 | 31.3 ± 1.4 | – |
| CC1(C(=O)Nc2ccc(O)c(Cl)c2Cl)CCCCC1 [Fenhexamid] | – | -4.08 ± 0.5 | – | -3.83 ± 0.64 | -3.52 ± 0.054 | -3.56 ± 0.41 | -3.14 ± 0.72 | -0.0455 ± 1.5 | LDH release cytotoxicity (0.031623 µM): -0.566 ± 0.13%; LDH release cytotoxicity (0.316228 µM): -4.43 ± 1.2% |
| COP(=S)(OC)Oc1ccc([N+](=O)[O-])c(C)c1 [Fenitrothion] | -1.98 ± 1.1 | -2.13 ± 1.2 | -0.603 ± 0.67 | -1.11 ± 0.74 | -0.939 ± 0.39 | -0.576 ± 0.69 | -0.104 ± 0.3 | 0.45 ± 0.39 | – |
| CC(C)OC(=O)C(C)(C)Oc1ccc(C(=O)c2ccc(Cl)cc2)cc1 [Fenofibrate] | -0.938 ± 0.65 | -0.368 ± 1.6 | -0.7726 ± 0.0031 | -1.53 ± 0.59 | -0.41 ± 0.067 | -0.735 ± 0.21 | -0.291 ± 0.23 | 0.118 ± 0.2 | – |
| CCOC(=O)C(C)Oc1ccc(Oc2nc3ccc(Cl)cc3o2)cc1 (centres undefined) [Fenoxaprop-ethyl] | -2.02 ± 0.53 | -2.51 ± 0.57 | -2.8 ± 0.91 | -2.59 ± 1 | -2.21 ± 0.26 | -2.46 ± 0.87 | -1.44 ± 0.15 | -1.21 ± 0.54 | – |
| CCOC(=O)NCCOc1ccc(Oc2ccccc2)cc1 [Fenoxycarb] | -2.3 ± 0.29 | -2.15 ± 0.69 | -2.2 ± 0.96 | -2.52 ± 0.77 | -2.33 ± 0.49 | -1.4 ± 0.053 | -2.64 ± 0.77 | 16.6 ± 5.7 | – |
| CC1(C)C(C(=O)OC(C#N)c2cccc(Oc3ccccc3)c2)C1(C)C (centres undefined) [Fenpropathrin] | -1.16 ± 1 | -1.28 ± 0.23 | 0.259 ± 0.35 | -1.32 ± 0.98 | -1.08 ± 0.83 | -0.114 ± 0.023 | 0.399 ± 0.42 | 1.44 ± 0.57 | – |
